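Results reflect a 48-hour exposure of cells in 96-well plates to compound at five concentrations. Here, GI50 denotes the concentration required for 50% inhibition of growth.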 Active and inactive are the calls of the source. Cut-off read from the data, not from the text of the source: active = GI50 up to about 1.1 µM and inactive = higher.
Assays:
Experiment in all cases: inhibition of tumour cell growth, NCI panel, 48 h
SR = tested on: SR
DLD-1 = tested on: DLD-1
K562 = tested on: K562
SF-295 = tested on: SF-295
SN12C = tested on: SN12C
SK-MEL-2 = tested on: SK-MEL-2
TK-10 = tested on: TK-10
SW-620 = tested on: SW-620
UACC-257 = tested on: UACC-257
HT-29 = tested on: HT-29
LOX IMVI = tested on: LOX IMVI
HOP-92 = tested on: HOP-92
HOP-62 = tested on: HOP-62
HCT-116 = tested on: HCT-116
Malme-3M = tested on: Malme-3M
NCI-H460 = tested on: NCI-H460
SK-MEL-28 = tested on: SK-MEL-28
A549 = tested on: A549
NCI-H226 = tested on: NCI-H226
RXF 631 = tested on: RXF 631
M19-MEL = tested on: M19-MEL
SF-268 = tested on: SF-268
A498 = tested on: A498
SNB-19 = tested on: SNB-19
SF-539 = tested on: SF-539
RPMI-8226 = tested on: RPMI-8226
DMS-114 = tested on: DMS-114
UO-31 = tested on: UO-31
KM12 = tested on: KM12
OVCAR-4 = tested on: OVCAR-4
KM-20L2 = tested on: KM-20L2
SNB-78 = tested on: SNB-78
HCT-15 = tested on: HCT-15
SK-MEL-5 = tested on: SK-MEL-5
NCI-H23 = tested on: NCI-H23
EKVX = tested on: EKVX
ACHN = tested on: ACHN
RXF 393 = tested on: RXF 393
OVCAR-5 = tested on: OVCAR-5
SNB-75 = tested on: SNB-75
CAKI-1 = tested on: CAKI-1
HL-60 = tested on: HL-60
786-0 = tested on: 786-0
XF498 = tested on: XF498
LXFL 529 = tested on: LXFL 529
HOP-18 = tested on: HOP-18
OVCAR-3 = tested on: OVCAR-3
IGROV-1 = tested on: IGROV-1
HCC 2998 = tested on: HCC 2998
MOLT-4 = tested on: MOLT-4
UACC-62 = tested on: UACC-62
CCRF-CEM = tested on: CCRF-CEM
OVCAR-8 = tested on: OVCAR-8
M14 = tested on: M14
DMS-273 = tested on: DMS-273
COLO 205 = tested on: COLO 205
NCI-H522 = tested on: NCI-H522
SK-OV-3 = tested on: SK-OV-3
U-251 = tested on: U-251

Compound: COc1ccccc1/C=C1\CCC(CCN2CCOCC2)C1=O (stereo unspecified)
- GI50 (SR): > 100 µM (inactive)
- GI50 (DLD-1): > 100 µM (inactive)
- GI50 (K562): 41.1 µM (inactive)
- GI50 (SF-295): > 100 µM (inactive)
- GI50 (SN12C): > 100 µM (inactive)
- GI50 (SK-MEL-2): > 100 µM (inactive)
- GI50 (TK-10): 93.1 µM (inactive)
- GI50 (SW-620): > 100 µM (inactive)
- GI50 (UACC-257): > 100 µM (inactive)
- GI50 (HT-29): 50.1 µM (inactive)
- GI50 (LOX IMVI): 63.2 µM (inactive)
- GI50 (HOP-92): > 100 µM (inactive)
- GI50 (HOP-62): > 100 µM (inactive)
- GI50 (HCT-116): 70.8 µM (inactive)
- GI50 (Malme-3M): > 100 µM (inactive)
- GI50 (NCI-H460): 90.8 µM (inactive)
- GI50 (SK-MEL-28): > 100 µM (inactive)
- GI50 (A549): > 100 µM (inactive)
- GI50 (NCI-H226): > 100 µM (inactive)
- GI50 (RXF 631): 92.7 µM (inactive)
- GI50 (M19-MEL): > 100 µM (inactive)
- GI50 (SF-268): > 100 µM (inactive)
- GI50 (A498): > 100 µM (inactive)
- GI50 (SNB-19): > 100 µM (inactive)
- GI50 (SF-539): > 100 µM (inactive)
- GI50 (RPMI-8226): 34 µM (inactive)
- GI50 (DMS-114): 42 µM (inactive)
- GI50 (UO-31): 90.4 µM (inactive)
- GI50 (KM12): > 100 µM (inactive)
- GI50 (OVCAR-4): 37.8 µM (inactive)
- GI50 (KM-20L2): 75 µM (inactive)
- GI50 (SNB-78): > 100 µM (inactive)
- GI50 (HCT-15): 91.8 µM
- GI50 (SK-MEL-5): 68.1 µM (inactive)
- GI50 (NCI-H23): > 100 µM (inactive)
- GI50 (EKVX): > 100 µM (inactive)
- GI50 (ACHN): 75.2 µM (inactive)
- GI50 (RXF 393): 59.8 µM (inactive)
- GI50 (OVCAR-5): > 100 µM (inactive)
- GI50 (SNB-75): 49 µM (inactive)
- GI50 (CAKI-1): > 100 µM (inactive)
- GI50 (HL-60): 31.5 µM (inactive)
- GI50 (786-0): > 100 µM (inactive)
- GI50 (XF498): > 100 µM (inactive)
- GI50 (LXFL 529): > 100 µM (inactive)
- GI50 (HOP-18): > 100 µM (inactive)
- GI50 (OVCAR-3): > 100 µM (inactive)
- GI50 (IGROV-1): > 100 µM (inactive)
- GI50 (HCC 2998): 66.1 µM (inactive)
- GI50 (MOLT-4): 48.1 µM (inactive)
- GI50 (UACC-62): > 100 µM (inactive)
- GI50 (CCRF-CEM): 38.7 µM (inactive)
- GI50 (OVCAR-8): > 100 µM (inactive)
- GI50 (M14): > 100 µM (inactive)
- GI50 (DMS-273): > 100 µM (inactive)

Compound: CCOP(=O)(OCC)OC1C=CC2CCC1C2 (stereo unspecified)
- GI50 (SR): 26.6 µM (inactive)
- GI50 (DLD-1): > 100 µM (inactive)
- GI50 (K562): > 100 µM (inactive)
- GI50 (SF-295): > 100 µM (inactive)
- GI50 (SN12C): > 100 µM (inactive)
- GI50 (COLO 205): > 100 µM (inactive)
- GI50 (SK-MEL-2): > 100 µM (inactive)
- GI50 (TK-10): > 100 µM (inactive)
- GI50 (UACC-257): > 100 µM (inactive)
- GI50 (HT-29): > 100 µM (inactive)
- GI50 (LOX IMVI): > 100 µM (inactive)
- GI50 (HOP-62): > 100 µM (inactive)
- GI50 (HCT-116): > 100 µM (inactive)
- GI50 (NCI-H522): > 100 µM (inactive)
- GI50 (Malme-3M): > 100 µM (inactive)
- GI50 (NCI-H460): > 100 µM (inactive)
- GI50 (SK-MEL-28): > 100 µM (inactive)
- GI50 (A549): > 100 µM (inactive)
- GI50 (NCI-H226): > 100 µM (inactive)
- GI50 (RXF 631): > 100 µM (inactive)
- GI50 (SF-268): > 100 µM (inactive)
- GI50 (SK-OV-3): > 100 µM (inactive)
- GI50 (A498): > 100 µM (inactive)
- GI50 (SNB-19): > 100 µM (inactive)
- GI50 (SF-539): > 100 µM (inactive)
- GI50 (U-251): > 100 µM (inactive)
- GI50 (RPMI-8226): 28.1 µM (inactive)
- GI50 (DMS-114): 87.9 µM (inactive)
- GI50 (UO-31): > 100 µM (inactive)
- GI50 (KM12): > 100 µM (inactive)
- GI50 (OVCAR-4): > 100 µM (inactive)
- GI50 (KM-20L2): > 100 µM (inactive)
- GI50 (SNB-78): > 100 µM (inactive)
- GI50 (HCT-15): 20.7 µM
- GI50 (SK-MEL-5): > 100 µM (inactive)
- GI50 (NCI-H23): > 100 µM (inactive)
- GI50 (EKVX): > 100 µM (inactive)
- GI50 (ACHN): > 100 µM (inactive)
- GI50 (RXF 393): > 100 µM (inactive)
- GI50 (OVCAR-5): > 100 µM (inactive)
- GI50 (SNB-75): > 100 µM (inactive)
- GI50 (CAKI-1): > 100 µM (inactive)
- GI50 (HL-60): > 100 µM (inactive)
- GI50 (786-0): 86.3 µM (inactive)
- GI50 (XF498): > 100 µM (inactive)
- GI50 (LXFL 529): > 100 µM (inactive)
- GI50 (HOP-18): > 100 µM (inactive)
- GI50 (OVCAR-3): > 100 µM (inactive)
- GI50 (IGROV-1): > 100 µM (inactive)
- GI50 (HCC 2998): > 100 µM (inactive)
- GI50 (MOLT-4): > 100 µM (inactive)
- GI50 (UACC-62): > 100 µM (inactive)
- GI50 (CCRF-CEM): > 100 µM (inactive)
- GI50 (OVCAR-8): > 100 µM (inactive)
- GI50 (M14): > 100 µM (inactive)
- GI50 (DMS-273): 18.6 µM (inactive)

From ChEMBL document CHEMBL1201862, “PubChem BioAssay data set” (2004)
